These results are taken from US9994594B2, “Inhibitors of arginase and their therapeutic applications” (MARS, INCORPORATED, priority 2010, dated 2018).

For one assay, the target named is T1, human arginase I (ARG I) (Homo sapiens, UniProt P05089).
T1 sequence (P05089 1-322): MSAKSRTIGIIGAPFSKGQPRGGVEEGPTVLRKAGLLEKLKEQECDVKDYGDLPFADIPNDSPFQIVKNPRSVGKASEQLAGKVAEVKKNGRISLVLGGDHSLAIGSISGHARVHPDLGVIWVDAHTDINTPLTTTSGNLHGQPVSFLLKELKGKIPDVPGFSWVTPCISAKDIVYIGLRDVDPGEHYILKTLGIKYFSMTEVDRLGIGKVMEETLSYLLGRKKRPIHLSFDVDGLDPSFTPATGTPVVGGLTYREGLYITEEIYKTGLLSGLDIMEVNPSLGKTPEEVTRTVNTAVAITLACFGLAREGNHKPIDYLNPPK
Put plainly: Inhibition of arginase I, spectrophotometric urea assay at 530 nm. Type of assay: biochemical. Particulars: read-out: Potency (ARG I). Summed up:
(§1)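 IC50 was derived by regression of OD530 normalized to uninhibited-enzyme controls against log concentration. Urea from 60-min, 37 °C turnover of L-arginine with manganese sulfate was detected after acid o-phthaldialdehyde/primaquine quench and 10 min colour development. Arginase I and II came from 100 ng/ml stocks in pH 7.4 phosphate with ovalbumin.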

Another assay addresses T2, arginase II (ARG II) (Homo sapiens, UniProt P78540).
T2 sequence (P78540 23-354): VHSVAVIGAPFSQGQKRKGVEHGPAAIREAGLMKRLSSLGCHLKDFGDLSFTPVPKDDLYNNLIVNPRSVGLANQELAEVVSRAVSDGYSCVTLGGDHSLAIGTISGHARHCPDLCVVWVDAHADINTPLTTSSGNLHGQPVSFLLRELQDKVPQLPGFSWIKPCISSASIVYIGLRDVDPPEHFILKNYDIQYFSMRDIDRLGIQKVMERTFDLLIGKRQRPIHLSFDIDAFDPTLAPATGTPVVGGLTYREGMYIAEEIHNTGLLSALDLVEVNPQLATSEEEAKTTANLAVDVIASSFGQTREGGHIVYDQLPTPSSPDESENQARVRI
Description: Inhibition of arginase II, spectrophotometric urea assay at 530 nm. Type of assay: biochemical. A digest of the protocol: as §1

[1] abbreviates: Formula I compounds, Table 2, read-out: Potency (ARG II).
Setting [2] is: Formula II compounds, Table 2-A.
Where [3] appears, read: Formula II compounds, Table 2-A, read-out: Potency (ARG).

Where a name gives a salt, the structure may show the parent alone. Read-outs that look alike come from different tables or passages of the source.

With `CCN(CCC(N)(CCCCB(O)O)C(=O)O)Cc1ccccc1` (racemic) [compound 19, (R/S)-2-Amino-2-[2-(benzyl-ethyl-amino)-ethyl]-6-borono-hexanoic acid dihydrochloride], the IC50 at human arginase I (ARG I) (Formula I compounds, Table 2) lay in the range of 2000 to 5000 nM; on arginase II (ARG II) (setting [1]) it was 1000 to 2000 nM.

With `CNC(CCCCB(O)O)(CC[C@@H]1CCCN1)C(=O)O` (stereo partly drawn) [compound 144, 6-borono-2-(methylamino)-2-(2-((S)-pyrrolidin-2-yl)ethyl)hexanoic acid dihydrochloride], the IC50 at human arginase I (ARG I) (Formula I compounds, Table 2) lay in the range of 0.1 to 250 nM; on arginase II (ARG II) (setting [1]), 0.1 to 250 nM.

Turning to `N[C@](CCCCB(O)O)(CCN1CC[C@@H](CO)C1)C(=O)O` [compound 7, (R)-2-amino-6-borono-2-(2-((R)-3-(hydroxymethyl)pyrrolidin-1-yl)ethyl)hexanoic acid dihydrochloride], the IC50 at human arginase I (ARG I) (Formula I compounds, Table 2) was in the range of 0.1 to 250 nM; at arginase II (ARG II) (setting [1]), 251 to 1000 nM.

Take `NC(CCCCB(O)O)(C(=O)O)[C@H]1C[C@@H](NCc2cc3c(cc2Cl)OCO3)C1` (stereo partly drawn) [Example 78-A, cis-2-amino-6-borono-2-(3-((6-chlorobenzo[d][1,3]dioxol-5-yl)methylamino)cyclobutyl)hexanoic acid dihydrochloride]: the IC50 at human arginase I (ARG I) (setting [2]) and on arginase II (ARG II) (setting [3]) was 0.1 to 250 nM each time.

As for `C[C@@H](O)CNCC(N)(CCCCB(O)O)C(=O)O` (stereo partly drawn) [compound 85, 2-amino-6-borono-2-(((R)-2-hydroxypropylamino)methyl)hexanoic acid dihydrochloride], the IC50 is 2000 to 5000 nM on human arginase I (ARG I) (Formula I compounds, Table 2) and 2000 to 5000 nM on arginase II (ARG II) (setting [1]).

Turning to `N#Cc1cccc(CN2CCC(C(N)(CCCCB(O)O)C(=O)O)CC2)c1` (stereo not shown) [Example 106-A, 2-amino-6-borono-2-(1-(3-cyanobenzyl)piperidin-4-yl)hexanoic acid dihydrochloride], the IC50 at human arginase I (ARG I) (setting [2]) and at arginase II (ARG II) (setting [3]) was 251 to 1000 nM in each case.

As for `NC(CCCCB(O)O)(C(=O)O)[C@H]1CC[C@@H](C(=O)c2ccc(Cl)cc2)CC1` (stereo partly drawn) [Example 84-A, cis-2-Amino-6-borono-2-[4-(4-Chlorobenzoyl)-cyclohexyl]hexanoic acid hydrochloride], the IC50 at human arginase I (ARG I) (setting [2]) and at arginase II (ARG II) (setting [3]) was > 5000 nM each time.

As for `NC(CCCCB(O)O)(C(=O)O)C1CCN(C(=O)c2ccccc2)CC1` (stereo not shown) [30-A, 2-amino-6-borono-2-[1-benzoylpiperidin-4-yl]hexanoic acid hydrochloride], the IC50 on human arginase I (ARG I) (setting [2]) and on arginase II (ARG II) (setting [3]) was 2000 to 5000 nM in each case.

Regarding `NC(CCCCB(O)O)(CCN1CCC(=O)CC1)C(=O)O` (stereo not shown) [compound 38, 2-amino-6-borono-2-(2-(4-oxopiperidin-1-yl)ethyl)hexanoic acid dihydrochloride], the IC50 at human arginase I (ARG I) (Formula I compounds, Table 2) was 2000 to 5000 nM; at arginase II (ARG II) (setting [1]), 2000 to 5000 nM.

As to `NC(CCCCB(O)O)(CNC1CCOCC1)C(=O)O` (stereo not shown) [compound 87, 2-amino-6-borono-2-((tetrahydro-2H-pyran-4-ylamino)methyl)hexanoic acid dihydrochloride], the IC50 was in the range of 1000 to 2000 nM on human arginase I (ARG I) (Formula I compounds, Table 2) and 1000 to 2000 nM at arginase II (ARG II) (setting [1]).

Regarding `N[C@@](CCCCB(O)O)(C(=O)O)[C@H]1CCN(c2ccc(Cl)cc2)C1` [12-A, (R)-2-amino-6-borono-2-((S)-1-(4-chlorophenyl)pyrrolidin-3-yl)hexanoic acid hydrochloride], the IC50 on human arginase I (ARG I) (setting [2]) and on arginase II (ARG II) (setting [3]) was 2000 to 5000 nM throughout.

Consider `NC(CCCCB(O)O)(C(=O)O)C1CCN(C(=O)c2ccc(Cl)cc2)CC1` (stereo not shown) [26-A, 2-amino-6-borono-2-[1-(4-chlorobenzoyl)piperidin-4-yl]hexanoic acid hydrochloride], for which the IC50 at human arginase I (ARG I) (setting [2]) and at arginase II (ARG II) (setting [3]) was 2000 to 5000 nM each time.

In the case of `NC(CCCCB(O)O)(CCN1CCC(c2ccc(Cl)cc2)CC1)C(=O)O` (stereo not shown) [compound 121, 2-amino-6-borono-2-(2-(4-(4-chlorophenyl)piperidin-1-yl)ethyl)hexanoic acid dihydrochloride], the IC50 was 251 to 1000 nM on human arginase I (ARG I) (Formula I compounds, Table 2) and 251 to 1000 nM on arginase II (ARG II) (setting [1]).

With `NC(CCCCB(O)O)(CN1CCCCC1)C(=O)O` (stereo not shown) [compound 79, 2-amino-6-borono-2-(piperidin-1-ylmethyl)hexanoic acid], the IC50 was 2000 to 5000 nM on human arginase I (ARG I) (Formula I compounds, Table 2) and > 5000 nM on arginase II (ARG II) (setting [1]).
